Measured values reported in US12728111B2, “Electrophilic compounds and electrophilic prodrugs for treating aneurysm” (University of Pittsburgh—Of the Commonwealth System of …, priority 2020, dated 2026).

Key:
[1] = system: p65 (NFκB); assay: oxLDL-induced p65 nuclear translocation in BMDMs (western blot); assay type: cell-based, mouse; conditions: 2.5 μM pretreatment 1 h, oxLDL 50 μg/ml 1 h
Experimental: FIG. 3. NO2—OA prevents oxLDL-induced NFκB activation and pro-inflammatory cytokine production. Primary BMDMs were pretreated with vehicle, OA (2.5 μM) or NO2—OA (2.5 μM) for 1 h, followed by treatment of oxLDL (50 to 100 μg/ml) for the indicated times. (A, B) Nuclear (A) and cytoplasmic protein (B) fractions were isolated 1 h after oxLDL treatment and subjected to western blot with antibodies against p65, lamin a/c (nuclear marker) and GAPDH (cytosolic marker). Representative western blot images of three independent experiments are shown. (C) Quantification of the p65 nuclear to cytoplasmic ratio by image studio (normalized by the internal control, n=3). (D-F) Following 8 h of oxLDL treatment, levels of IL6, MCP1 and TNFα in the cell medium were measured by ELISA (n=4). (G) Real-time PCR quantification of gene expression levels of IL1b and Mmp9 in total mRNA extracted from the BMDMs. […]
Nuclear/cytoplasm protein extraction, co-Immunoprecipitation and immunoblotting NE-PER™ Nuclear and Cytoplasmic Extraction Reagents (#78835, ThermoFisher) were used for nuclear and cytoplasmic protein extraction. […] Membranes were blocked by 5% BSA and incubated with the primary antibody at 4° C. overnight followed by incubation with fluorescence conjugated secondary antibody for 1 h at room temperature. Band intensity was collected with the Odyssey® CLx Imaging System and quantified using Image Studio™ Lite.

[2] = system: oxLDL-induced Il1b and Mmp9 expression in BMDMs; assay: Real-time PCR of oxLDL-induced pro-inflammatory genes in BMDMs; assay type: cell-based, mouse; conditions: BMDMs, vs control
Experimental: FIG. 3. NO2—OA prevents oxLDL-induced NFκB activation and pro-inflammatory cytokine production. Primary BMDMs were pretreated with vehicle, OA (2.5 μM) or NO2—OA (2.5 μM) for 1 h, followed by treatment of oxLDL (50 to 100 μg/ml) for the indicated times. (A, B) Nuclear (A) and cytoplasmic protein (B) fractions were isolated 1 h after oxLDL treatment and subjected to western blot with antibodies against p65, lamin a/c (nuclear marker) and GAPDH (cytosolic marker). Representative western blot images of three independent experiments are shown. (C) Quantification of the p65 nuclear to cytoplasmic ratio by image studio (normalized by the internal control, n=3). (D-F) Following 8 h of oxLDL treatment, levels of IL6, MCP1 and TNFα in the cell medium were measured by ELISA (n=4). (G) Real-time PCR quantification of gene expression levels of IL1b and Mmp9 in total mRNA extracted from the BMDMs. (C) Ordinary one-way ANOVA followed by Tukey's test was performed. As of (D-F), the basal level contains several non-detectable values, so ordinary one-way ANOVA followed by correction of FDR were performed for the oxLDL-treated groups only. Ordinary one-way ANOVA followed by Tukey's test was performed for (G). Data presented as mean±SEM. A p<0.05 for both the main test and post hoc test was considered statistically significant.
Mice suprarenal aortas were collected after the measurement of their diameter. Human aortic aneurysm samples were obtained from the Department of Cardiac Surgery at the University of Michigan. Samples from humans and mice were snap-frozen in liquid nitrogen for later processing. RNA from tissue was extracted using TRIzol (#15596018, Invitrogen). RNA from cells was isolated with the RNeasy Mini Kit (#74106, QIAGEN). SuperScript™ III First-Strand Synthesis System (#18080051, Invitrogen) was used to reverse-transcribe mRNA into cDNA. Gene expression was quantified in triplicates by quantitative real-time PCR (qPCR) using IQ SYBR Green Supermix (#1708882, Bio-Rad) with the indicated gene primers.

[3] = system: LPS-induced macrophage activation; assay: PGE2-mediated protection against LPS-induced macrophage activation; assay type: cell-based
[4] = system: AngII/PCSK9-induced AAA mouse model; assay: Ang II plus hypercholesterolemia (AngII/PCSK9) induced AAA mouse model; assay type: in vivo
Experimental: FIG. 1. Characterization of the protective effect of NO2—OA (10-nitro-octadec-9-enoic acid) in the Ang II plus hypercholesterolemia-induced AAA mouse model. (A) Schematic illustration of the in vivo experimental design. Ten week old male C57BL/6 mice were IP injected with AAV carrying PCSK9 gain-of-function (D377Y) mutation and fed a western diet. After two weeks, each mouse was implanted with a pump delivering AngII at a rate of 1,500 ng/kg/min plus an additional pump containing either PEG-400 (vehicle), OA or NO2—OA with a delivery rate of 5 mg/kg/day (n=25 to 30 per group) and carried to the endpoint for another four weeks. Mice with ruptured aorta within the first week or with total plasma cholesterol less than 250 mg/dl were excluded from the study. (B) Representative morphological differences of the abdominal aorta. (C) AAA incidence calculated by using 1.2 mm as the cutoff diameter indicated by the dotted line in (D). (D) Average maximal diameter of the suprarenal aorta region. (E) Representative H&E and VVG staining of the paraffin-embedded suprarenal aortic cross-sections (5 μm). (F) Grade of elastic fiber degradation in the aorta (1 to 4). A 2×3 Fisher's exact test followed by posthoc test was performed for (C). For (D) and (F), the Kruskal-Wallis test followed by Dunn's multiple comparisons was performed. Continuous data are presented as mean±SEM. Scale bar=20 μm for (E). A p<0.05 for both the main test and post hoc test was considered statistically significant.
Ten weeks old male C57BL/6J mice were purchased from The Jackson Laboratory. The murine AAA model induced by AngII/PCSK9 gain-of-function mutation is well-established. After acclimation for 1 week, mice were fed a western diet (TD.88137, Envigo) and intraperitoneally injected with 2×1011 genomic copies of AAV-PCSK9.D377Y (AAV serotype 8, Penn Vector Core). Two weeks later, each mouse was subcutaneously implanted with two osmotic pumps (Model #2004, Alzet). One was loaded with AngII (#H-1706, Bachem), releasing at a rate of 1,500ng/kg/min, while the other one was loaded with PEG-400, OA or NO2—OA at a delivery rate of 5 mg/kg/day for OA or NO2—OA. After 4-weeks infusion, mice were euthanized and the maximal outer diameter of the suprarenal aorta was assessed with a digital caliper by a third person blinded to the treatment. Suprarenal aortas with a maximal diameter ≥50% larger than standard size (≥1.2 mm) were considered as abdominal aortic aneurysms. Mice dead within the first week of pump implantation or with a serum total cholesterol level less than 250 mg/dL were excluded from the study. All animal procedures were performed following the protocols approved by the Institutional Animal Care & Use Committee (IACUC) at the University of Michigan.
H&E and Verhoeff Van Gieson staining of paraffin or frozen sections of mouse suprarenal abdominal aorta were performed by the In-Vivo Animal Core at the University of Michigan. Elastin degradation grade was calculated as we previously reported.

SMILES: CCCCCCCCC(=CCCCCCCCC(=O)O)[N+](=O)[O-] [NO2—OA, 10-nitro-octadec-9-enoic acid]
- p65 nuclear to cytoplasmic ratio [1]: 14.10±1.92
- oxLDL-induced expression of Il1b [2]: significantly decreased
- oxLDL-induced expression of Mmp9 [2]: significantly decreased
- PGE2-mediated protective effect against LPS-induced macrophage activation (expression of Tnf, Il6, Ccl4) [3]: does not suppress
- AAA incidence ([4]; 5 mg/kg/day subcutaneous infusion, after 4 weeks, cutoff diameter 1.2 mm): 28.6%
- maximal diameter of the suprarenal aorta region ([4]; 5 mg/kg/day subcutaneous infusion, after 4 weeks, mean±SEM): 1.16±0.09 mm
- ECM degradation / elastin fiber degradation ([4]; 5 mg/kg/day, 4 weeks, VVG staining, grade 1 to 4): significantly reduced
